# In patent publication US20030114375A1, “Method for treating cystic fibrosis” (The Government of the USA, Dept of Health and Human …, priority 1994, published 2003):
# Entries after “also recorded” stand apart in the source; their conditions may differ. Read-outs that look alike come from different tables or passages of the source.
# Experiments:
# Iα polypeptide = molecular target: T1, Iα polypeptide (Homo sapiens, UniProt P13569); experiment: Phosphatidylserine liposome aggregation driven by Iα polypeptide; type: biochemical; settings: 0.5 μg/ml (0.18 μM) Iα; 2-thio-CPX up to 1 μM, IBMX up to 15 μM
# T1 construct: made in house; host or cells: chemical solid-phase synthesis (Yale University)
# Method: Liposome aggregation assay: Phosphatidylserine (“PS”, obtained from Avanti) was dissolved in chloroform, and small unilamellar liposomes were prepared by the extrusion process known in the art. A Lipex machine was used to extrude the PS in a buffer consisting of 10 mM Na-HEPES, pH 7.2 and 1 mM EDTA. The liposomes were diluted to a final optical density at 540 nm of 0.01 and incubated with different concentrations of the different polypeptides and/or chloride ion efflux-activating compounds.
# CFPAC cells [1] = experiment: [36Cl]- efflux from CFPAC cells; settings: for % control: chloride efflux at maximum impact relative to control: at Conc. max.; for % control: chloride efflux at minimum detection relative to control: at threshold concentration; for Efflux rate as compared to control (FIGS. 9-12): read from the graphs
# A1-adenosine receptor = molecular target: T2, A1-adenosine receptor (Rattus norvegicus, UniProt P25099); experiment: Inhibition of [3H]N6-phenylisopropyladenosine binding to A1 receptors
# T2 construct: Rat cerebral cortical membranes and striatal membranes were prepared; from tissue; host or cells: rat cerebral cortex membranes
# T2 sequence (P25099 1-326): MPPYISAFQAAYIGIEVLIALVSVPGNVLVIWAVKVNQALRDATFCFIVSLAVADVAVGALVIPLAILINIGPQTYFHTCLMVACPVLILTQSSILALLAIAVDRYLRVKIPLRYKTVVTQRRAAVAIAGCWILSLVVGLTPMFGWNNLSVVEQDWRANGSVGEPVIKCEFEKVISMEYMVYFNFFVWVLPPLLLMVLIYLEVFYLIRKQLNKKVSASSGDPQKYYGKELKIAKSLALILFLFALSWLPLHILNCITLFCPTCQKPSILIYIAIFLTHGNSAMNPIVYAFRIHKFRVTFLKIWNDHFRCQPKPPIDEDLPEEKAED
# Method: (§1) Solid samples of the adenosine derivatives were dissolved in dimethyl sulfoxide (DMSO) and stored in the art at. −20° C. The stock solutions were diluted with DMSO to a concentration of ≦0.1 mM prior to addition to the aqueous medium. The final concentration of DMSO in the assay medium was generally 2%.
# Inhibition of binding of 1 nM [^3H]N^6-phenylisopropyladenosine (Dupont NEN, Boston, Mass.) to A1 receptors in rat cerebral cortex membranes was measured as described in Schwabe et al., Naunyn-Schmiedeberg's Arch. […] Membranes (^˜100 μg protein per tube) were incubated for 1.5 hours at 37° C. in a total volume of 0.5 ml of 50 mM tris hydrochloride at pH 7.4. Test drugs were dissolved in DMSO and added in 10 μl aliquots, resulting in a final DMSO concentration of 2%. Bound and free radioligand were separated by addition of 3 ml of a buffer containing 50 mM tris hydrochloride, at pH 7.4 at 5° C., followed by vacuum filtration using a Brandel Cell Harvester (Brandel, Gaithersburg, Md.) and a Whatman GF/B glass fiber filter with additional washes totaling 9 ml of buffer. Non-specific binding was determined with 10 μM 2-chloroadenosine.
# (§2) At least six different concentrations spanning three orders of magnitude, adjusted appropriately for the IC50 of each compound, were used.
# CFPAC cells [2] = settings: U.S. Pat. No. 5,366,977 / Eidelman et al.; cited from earlier work
# A2a-adenosine receptor = molecular target: T3, A2a-adenosine receptor (Rattus norvegicus, UniProt P30543); experiment: Inhibition of [3H]CGS 21680 binding to A2a receptors; settings: for Ki: rat striatal membranes, 5 nM [3H]CGS 21680, read-out: Ki, μM(A2)
# T3 construct: Rat cerebral cortical membranes and striatal membranes were prepared; from tissue; host or cells: rat striatal membranes
# T3 sequence (P30543 whole entry): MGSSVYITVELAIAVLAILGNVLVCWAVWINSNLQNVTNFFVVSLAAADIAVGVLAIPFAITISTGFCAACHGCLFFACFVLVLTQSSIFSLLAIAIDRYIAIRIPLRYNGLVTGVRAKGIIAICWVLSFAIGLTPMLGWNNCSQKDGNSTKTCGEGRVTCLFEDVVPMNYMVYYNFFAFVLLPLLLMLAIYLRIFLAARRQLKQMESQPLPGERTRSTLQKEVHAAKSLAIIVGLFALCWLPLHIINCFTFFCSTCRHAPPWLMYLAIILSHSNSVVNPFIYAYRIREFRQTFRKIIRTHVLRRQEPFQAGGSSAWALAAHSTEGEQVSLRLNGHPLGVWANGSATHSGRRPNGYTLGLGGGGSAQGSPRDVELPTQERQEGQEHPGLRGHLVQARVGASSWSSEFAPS
# Method: as §1
# Membranes (^˜80 μg protein per tube) were incubated for one hour at 25° C. in a total volume of 0.5 ml of a buffer solution consisting of […] tris hydrochloride and 10 mM MgCl2 at pH 7.4. Test drugs were dissolved in DMSO and added in 10 μl aliquots, resulting in a final DMSO concentration of 2%. Non-specific binding was defined using 20 μM 2-chloroadenosine. Filtration was carried out using a Brandel Cell Harvester, as above, using the tris.HCl/MgCl2 buffer recited hereinabove as the washing buffer.
# as §2
# [3] = tested on: bovine chromaffin granules; experiment: Chromaffin granule aggregation assay; type: biochemical; settings: for Aggregation of chromaffin granules: 1 mM CaCl2, 20 μg/ml polypeptide
# Method: Chromaffin granule aggregation assay: Adrenal glands were obtained from a local abattoir and transported to the laboratory on ice within 2 hours of slaughter. Tissue was processed as described in Brocklehurst et al. in Polypeptide Hormones: A Practical Approach (Oxford Univ. Press, K. Siddle and J. Hutton, eds., 1990) at pp. 237-255. Chromaffin granules were purified on a step gradient of metrizamide using standard procedures. After resuspension, the granule aggregation assay was performed as described (Brocklehurst et al., supra), and the synexin activity was assessed from the initial rate of optical density increase at 540 nm. Briefly, the assay was carried out at room temperature in a 1 ml quartz cuvette containing the chromaffin granule suspension in 0.3 mol/l sucrose, 40 mmol/l histidine buffer, pH 6.0, synexin and variable amounts of calcium chloride.
# [4] = rat cerebral cortex membranes, 1 nM [3H]PIA, read-out: Ki, μM(A1)
Compound,Conc. max. (nM): concentration at maximum impact upon chloride efflux (CFPAC cells [1]),Ki (A1-adenosine receptor; [4]) [µM],Ki (A2a-adenosine receptor) [µM],also measured
CCn1c(C2CCCCC2)nc2c1c(=O)n(C)c(=O)n2C (hydrate or solvate) [Compound 15],–,–,–,melting point: > 170 °C
Cn1c(=O)c2c(nc(C3CCCCC3)n2CC2CC2)n(C)c1=O (hydrate or solvate) [Compound 16],–,–,–,melting point: > 120 °C
"Nc1ncnc2c1ncn2[C@@H]1O[C@H](CO)[C@@H](O)[C@H]1O [Adenosine, adenosine]",–,–,–,Effect on PS liposome aggregation driven by Iα (Iα polypeptide): modest but evident biphasic effect
"Cn1c(=O)c2c(ncn2C)n(C)c1=O [Compound 2, 1,3,7-trimethylxanthine, reference compound]",10 nM,–,–,thresh (nM): minimum concentration required to detect an effect upon chloride efflux (CFPAC cells [1]): 1 nM
"Cn1c(=O)c2[nH]c(C3CCCC3)nc2n(C)c1=O [Compound 4, 1,3-dimethyl-8-cyclopentylxanthine, reference compound]",>>10^4 nM,0.011,–,"Affinity for A1 receptor (A1-adenosine receptor): highest A1 affinity; Activation of chloride efflux from CF cells (words, prior disclosure) (CFPAC cells [2]): ineffective"
"CCCn1c(=O)c2c(nc(C3CCCC3)n2C)n(CCC)c1=O [Compound 6, 1,3-dipropyl-7-methyl-8-cyclopentylxanthine]",1000 nM,2.3,11.4 ± 1.4,Affinity for A1 receptor (A1-adenosine receptor): low affinity; Chloride efflux stimulation (summary words) (CFPAC cells [1]): stimulate chloride efflux at μM or lesser concentrations; also recorded: substantial efflux activity at low concentration ranges; thresh (nM): minimum concentration required to detect an effect upon chloride efflux (CFPAC cells [1]): 30 nM; % control: chloride efflux at maximum impact relative to control (CFPAC cells [1]): 180 ± 40%; % control: chloride efflux at minimum detection relative to control (CFPAC cells [1]): 125 ± 30%; Affinity for A2 receptor (A2a-adenosine receptor): low affinity
CCCn1c(=O)c2[nH]c(C3CCC(F)C3)nc2n(CCC)c1=O (centres unmarked) [Compound 9],>>300 nM,0.042,–,–
CCCn1c(=O)c2[nH]c(C3CCC(I)C3)nc2n(CCC)c1=O (centres unmarked) [Compound 10],>>300 nM,0.058,–,–
CCCn1c(=O)c2[nH]c(C3C=CCC3)nc2n(CCC)c1=O (centres unmarked) [Compound 11],>>300 nM,0.045,0.64 ± 0.061,–
"Cn1c(=O)c2c(nc(C3CCCCC3)n2C)n(C)c1=O [Compound 14, 8-cyclohexyl caffeine]",–,–,–,Chloride efflux stimulation (summary words) (CFPAC cells [1]): stimulate chloride efflux at μM or lesser concentrations; also recorded: substantial efflux activity at low concentration ranges; thresh (nM): minimum concentration required to detect an effect upon chloride efflux (CFPAC cells [1]): 3 nM
CCn1c(C2CCCCC2)nc2c1c(=O)n(C)c(=O)n2C [Compound 15],>>10^4 nM,6.66 ± 0.99,3.23 ± 0.36,–
Cn1c(=O)c2c(nc(C3CCCCC3)n2CC2CC2)n(C)c1=O [Compound 16],>>10^4 nM,8.23 ± 1.62,4.53 ± 1.37,–
C=CCn1c(=O)c2[nH]c(C3CCCCC3)nc2n(CC=C)c1=O [Compound 17],10^3 nM,–,4.94 ± 0.68,Ki (A1-adenosine receptor; read-out: Ki for A1 receptors (unit inferred)): ~0.07 µM; thresh (nM): minimum concentration required to detect an effect upon chloride efflux (CFPAC cells [1]): 30 nM; Efflux rate as compared to control (FIGS. 9-12) (CFPAC cells [1]): > 100%
CCCn1c(=O)c2[nH]c(C3CCCCC3)nc2n(CCC)c1=O [Compound 18],>>10^4 nM,–,–,–
"CCCn1c(=O)c2c(nc(C3CCCCC3)n2C)n(CCC)c1=O [Compound 19, 1,3-dipropyl-7-methyl-8-cyclohexylxanthine]",5 nM,2.7,9.24 ± 0.37,Chloride efflux stimulation (summary words) (CFPAC cells [1]): stimulate chloride efflux at μM or lesser concentrations; also recorded: substantial efflux activity at low concentration ranges; thresh (nM): minimum concentration required to detect an effect upon chloride efflux (CFPAC cells [1]): 5 nM; % control: chloride efflux at maximum impact relative to control (CFPAC cells [1]): 170 ± 50%; % control: chloride efflux at minimum detection relative to control (CFPAC cells [1]): 170 ± 50%
Cn1c(=O)c2[nH]c(CC3CCCCC3)nc2n(C)c1=O [Compound 21],>>10^4 nM,0.61 ± 0.076,5.47 ± 0.86,melting point: 236 to 238 °C
"Cn1c(=O)c2c(nc(CC3CCCCC3)n2C)n(C)c1=O [Compound 22, 8-cyclohexylmethyl caffeine]",>>10^4 nM,3.71 ± 0.36,5.46 ± 0.47,Efflux rate as compared to control (FIGS. 9-12) (CFPAC cells [1]): 200%
Cn1c(=O)c2[nH]c(C3CCCCCC3)nc2n(C)c1=O [Compound 23],>>10^4 nM,0.0659 ± 0.0145,1.05 ± 0.19,melting point: 223 to 225 °C
Cn1c(=O)c2c(nc(C3CCCCCC3)n2C)n(C)c1=O [Compound 24],>>10^4 nM,19.5 ± 2.5,3.27 ± 0.98,A2a affinity (fold) (A2a-adenosine receptor; A2a versus A1): 6 fold
"Cn1c(=O)c2c(nc(C=Cc3cccc(Cl)c3)n2C)n(C)c1=O [Compound 25, reference compound]",30 nM,–,–,Chloride efflux stimulation (summary words) (CFPAC cells [1]): stimulate chloride efflux at μM or lesser concentrations; thresh (nM): minimum concentration required to detect an effect upon chloride efflux (CFPAC cells [1]): 30 nM
"CCCn1c(=O)c2[nH]c(-c3ccc(OCC(=O)NCCN)cc3)nc2n(CCC)c1=O [Compound 26, reference compound]",>>10^4 nM,–,–,–
"CCn1cnc2c(NC3CCCC3)ncnc21 [Compound 27, 9-ethyl-6-cyclopenyladenine, reference compound]",>>10^4 nM,0.44,17,–
"CFTR polypeptide, amino acid positions 477 to 508, NH2-PSEGKIKHSGRISFCSQFSWIMPGTIKENEEF-COOH [Iα]",–,–,–,"Aggregation of chromaffin granules [3]: drive aggregation; k1/2,app of chromaffin granule aggregation ([3]; 1 mM CaCl2, pH 6.0): 22.2 µg/mL; EC50 ([3]; 1 mM CaCl2, pH 6.0, read-out: k1/2,app of chromaffin granule aggregation): 6.3 µM"
"Io: CFTR polypeptide, positions 500 to 530, NH2-GTIKENEEFGVSYDEYRYRSVIKACQLEEDIS-COOH",–,–,–,Aggregation of chromaffin granules [3]: inactive
"Iβ: CFTR polypeptide, positions 509 to 539, NH2-GVSYDEYRYRSVIKACQLEEDISKFAEKDNI-COOH",–,–,–,Aggregation of chromaffin granules [3]: essentially inactive
